Laboratory results taken from the supplement of paper PMC11451515.

System: NOMO1
Test: cell viability relative to DMSO control; higher = less cytotoxic
Settings: 48 h
In short: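 Viability was expressed as a per-plate percentage of DMSO wells, with cell-free wells as background. Leukemia cells (NOMO1 or SEM at 500 cells/well, P12-Ichikawa at 1000 cells/well) were adapted for at least four passages in each medium and seeded in 1536-well plates (5 μl). Library compounds in DMSO were pin-dosed over an 11-point threefold series from 47 μM to 0.79 nM, and CellTiter-Glo One luminescence was read after 48 h at 37°C.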

[1] = HPLM + 10% dialyzed FBS, 0.000781 µM
[2] = HPLM + 10% dialyzed FBS, 0.00234 µM
[3] = HPLM + 10% dialyzed FBS, 0.00702 µM
[4] = HPLM + 10% dialyzed FBS, 0.0211 µM
[5] = HPLM + 10% dialyzed FBS, 0.0632 µM
[6] = HPLM + 10% dialyzed FBS, 0.19 µM
[7] = HPLM + 10% dialyzed FBS, 0.569 µM
[8] = HPLM + 10% dialyzed FBS, 1.71 µM
[9] = HPLM + 10% dialyzed FBS, 5.12 µM
[10] = HPLM + 10% dialyzed FBS, 15.4 µM
[11] = HPLM + 10% dialyzed FBS, 46.1 µM
[12] = RPMI 5 mM glucose + 10% FBS, 0.000781 µM
[13] = RPMI 5 mM glucose + 10% FBS, 0.00234 µM
[14] = RPMI 5 mM glucose + 10% FBS, 0.00702 µM
[15] = RPMI 5 mM glucose + 10% FBS, 0.0211 µM
[16] = RPMI 5 mM glucose + 10% FBS, 0.0632 µM
[17] = RPMI 5 mM glucose + 10% FBS, 0.19 µM
[18] = RPMI 5 mM glucose + 10% FBS, 0.569 µM
[19] = RPMI 5 mM glucose + 10% FBS, 1.71 µM
[20] = RPMI 5 mM glucose + 10% FBS, 5.12 µM
[21] = RPMI 5 mM glucose + 10% FBS, 15.4 µM
[22] = RPMI 5 mM glucose + 10% FBS, 46.1 µM
[23] = RPMI 5 mM glucose + 10% dialyzed FBS, 0.000781 µM
[24] = RPMI 5 mM glucose + 10% dialyzed FBS, 0.00234 µM
[25] = RPMI 5 mM glucose + 10% dialyzed FBS, 0.00702 µM
[26] = RPMI 5 mM glucose + 10% dialyzed FBS, 0.0211 µM
[27] = RPMI 5 mM glucose + 10% dialyzed FBS, 0.0632 µM
[28] = RPMI 5 mM glucose + 10% dialyzed FBS, 0.19 µM
[29] = RPMI 5 mM glucose + 10% dialyzed FBS, 0.569 µM
[30] = RPMI 5 mM glucose + 10% dialyzed FBS, 1.71 µM
[31] = RPMI 5 mM glucose + 10% dialyzed FBS, 5.12 µM
[32] = RPMI 5 mM glucose + 10% dialyzed FBS, 15.4 µM
[33] = RPMI 5 mM glucose + 10% dialyzed FBS, 46.1 µM

Row | SMILES | cell viability [1] [%] | cell viability [2] [%] | cell viability [3] [%] | cell viability [4] [%] | cell viability [5] [%] | cell viability [6] [%] | cell viability [7] [%] | cell viability [8] [%] | cell viability [9] [%] | cell viability [10] [%] | cell viability [11] [%] | cell viability [12] [%] | cell viability [13] [%] | cell viability [14] [%] | cell viability [15] [%] | cell viability [16] [%] | cell viability [17] [%] | cell viability [18] [%] | cell viability [19] [%] | cell viability [20] [%] | cell viability [21] [%] | cell viability [22] [%] | cell viability [23] [%] | cell viability [24] [%] | cell viability [25] [%] | cell viability [26] [%] | cell viability [27] [%] | cell viability [28] [%] | cell viability [29] [%] | cell viability [30] [%] | cell viability [31] [%] | cell viability [32] [%] | cell viability [33] [%]
1 | COc1ccc(-c2nc(N3CCOCC3)c3sc(CN(C)c4ncc(C(=O)NO)cn4)cc3n2)cn1 | 109 | 132 | 86.2 | 62.8 | 12.6 | 8.22 | 7.83 | 8.13 | 7.89 | 7.72 | 6.31 | 110 | 112 | 100 | 65.4 | 14.2 | 8.1 | 8.11 | 8.29 | 7.05 | 7.28 | 6.26 | 117 | 132 | 104 | 73.7 | 22.8 | 7.51 | 7.58 | 7.17 | 6.72 | 6.98 | 6.02
2 | CC(C)CC(=O)N[C@H](C(=O)N[C@H](C(=O)N[C@@H](CC(C)C)[C@@H](O)CC(=O)N[C@@H](C)C(=O)N[C@@H](CC(C)C)[C@@H](O)CC(=O)O)C(C)C)C(C)C | 107 | 96.3 | 120 | 106 | 112 | 117 | 118 | 108 | 119 | 124 | 119 | 105 | 119 | 94.4 | 107 | 102 | 114 | 99.8 | 108 | 93.1 | 97.8 | 90.3 | 91.6 | 98.4 | 111 | 115 | 104 | 110 | 112 | 113 | 116 | 107 | 105
3 | COc1cc(OC)c(/C=C/[S+](=O)([O-])Cc2ccc(OC)c(NCC(=O)[O][Na])c2)c(OC)c1 | 120 | 113 | 119 | 118 | 126 | 60.3 | 43.7 | 47.7 | 44 | 42.5 | 34.4 | 110 | 104 | 102 | 121 | 109 | 99.6 | 27.6 | 23.9 | 27 | 26.7 | 24.9 | 111 | 128 | 111 | 117 | 122 | 37.5 | 31.7 | 26.1 | 26.2 | 23.6 | 24.1
4 | O=C(NC[C@H](O)CO)c1ccncc1Nc1ccc(I)cc1F | 94.7 | 98.5 | 90 | 93 | 82.2 | 60.9 | 53.2 | 56 | 49.2 | 38.6 | 40.4 | 103 | 101 | 111 | 90.8 | 65.2 | 61.7 | 52.6 | 51.6 | 47.6 | 37.9 | 6.49 | 88.3 | 96.1 | 93.6 | 81.1 | 72.2 | 61.9 | 52 | 49.1 | 41.6 | 38.9 | 39.3
5 | COc1cc2ncnc(Nc3ccc(F)c(Cl)c3)c2cc1NC(=O)/C=C/CN1CCCCC1 | 92.2 | 105 | 114 | 102 | 108 | 118 | 81.9 | 81.8 | 72.1 | 65.6 | 41.5 | 86.4 | 93.7 | 91.1 | 86.3 | 98.4 | 84.9 | 89.6 | 88.4 | 89.1 | 91.7 | 75.5 | 95.7 | 97.7 | 93.6 | 85.4 | 91.3 | 96.6 | 85.1 | 95.2 | 78.3 | 65.6 | 72.9
6 | COC1=C2OC(=O)\C=C/C2=CC3=C1OC=C3 | 117 | 116 | 120 | 116 | 116 | 123 | 107 | 118 | 109 | 101 | 116 | 108 | 115 | 115 | 117 | 121 | 113 | 96.5 | 104 | 108 | 105 | 97.3 | 104 | 109 | 115 | 117 | 114 | 113 | 113 | 108 | 104 | 101 | 107
7 | O=C(O)c1ccc2c(c1)nc(Nc1cccc(Cl)c1)c1ccncc12 | 114 | 109 | 131 | 115 | 114 | 119 | 125 | 114 | 73.8 | 49.2 | 78.1 | 93 | 93.5 | 103 | 103 | 94.6 | 103 | 92.7 | 90.8 | 83.7 | 65.6 | 79.2 | 100 | 105 | 101 | 101 | 107 | 99.1 | 91.9 | 101 | 81.5 | 47.2 | 77.5
8 | COc1ncc(-c2ccc3nccc(-c4ccnnc4)c3c2)cc1N[S+](=O)([O-])c1ccc(F)cc1F | 95.5 | 81.2 | 76.8 | 89.6 | 75.1 | 66.3 | 60.5 | 45.8 | 41.7 | 31.9 | 29.7 | 121 | 96.1 | 92.3 | 79.8 | 76 | 72.8 | 69.7 | 43.1 | 29.9 | 27.8 | 21 | 104 | 92.1 | 86.2 | 76.6 | 72.9 | 62.6 | 64 | 44.7 | 38.1 | 29.7 | 19.9
9 | CCOC(=O)\C1=C(/C)N\C2=C(C1C3=CC=C(C=C3)C4=CC=CC=C4)\C(=O)CC(C)(C)C2 (stereo not given) | 125 | 97.2 | 125 | 117 | 116 | 114 | 102 | 102 | 106 | 82.3 | 73.6 | 107 | 103 | 102 | 108 | 105 | 109 | 103 | 102 | 106 | 87 | 88.2 | 110 | 103 | 111 | 114 | 113 | 95.1 | 104 | 112 | 90.1 | 73.7 | 74.8
10 | CC(C)NC[C@@H](C(=O)N1CCN(c2ncnc3c2[C@H](C)C[C@H]3O)CC1)c1ccc(Cl)cc1 | 115 | 115 | 119 | 117 | 109 | 103 | 109 | 110 | 79 | 51.4 | 18.6 | 109 | 121 | 109 | 100 | 111 | 109 | 107 | 105 | 102 | 73.8 | 47.8 | 124 | 89.2 | 115 | 100 | 103 | 100 | 108 | 87.8 | 81.6 | 57.6 | 43.1
11 | Cc1cn(-c2cc(NC(=O)c3ccc(C)c(Nc4nccc(-c5cccnc5)n4)c3)cc(C(F)(F)F)c2)cn1 | 100 | 122 | 123 | 135 | 130 | 117 | 103 | 88.8 | 95.3 | 95.2 | 114 | 99.7 | 111 | 115 | 127 | 113 | 131 | 117 | 66.5 | 61.3 | 74.2 | 68.4 | 102 | 109 | 107 | 106 | 114 | 114 | 111 | 86.8 | 67.2 | 66.3 | 62.9
12 | CNC[C@H](O)c1ccc(O)c(O)c1 | 112 | 95.6 | 104 | 104 | 96.9 | 102 | 88.1 | 89.2 | 86.3 | 77.1 | 73 | 84.7 | 89.8 | 83 | 87.6 | 84.6 | 80.5 | 90.7 | 89.9 | 80 | 76.7 | 77.9 | 84.2 | 90.4 | 93.8 | 85.6 | 95.9 | 91.3 | 84.2 | 75.5 | 84.6 | 76.5 | 77.7
13 | O=C(O[C@H]1C[C@H]2CC[C@@H](C1)[N+]21CCCC1)C(O)(c1ccccc1)c1ccccc1.[Cl-] | 95.5 | 116 | 121 | 107 | 124 | 116 | 116 | 116 | 116 | 110 | 106 | 89.4 | 95.7 | 99.6 | 89.9 | 92.3 | 98.3 | 96.8 | 105 | 100 | 105 | 92.1 | 97.6 | 98.8 | 111 | 109 | 98.1 | 102 | 94.8 | 95 | 111 | 106 | 108
14 | CNC(=O)c1ccc(N2C(=S)N(c3ccc(C#N)c(C(F)(F)F)c3)C(=O)C23CCC3)cc1F | 90.5 | 90.2 | 91.7 | 33.3 | 95.1 | 105 | 103 | 107 | 92.6 | 93.2 | 111 | 80.5 | 88.3 | 83.6 | 18.9 | 98.9 | 88 | 92 | 86.6 | 96 | 88.4 | 99.1 | 84.9 | 93.1 | 108 | 34.6 | 100 | 90.6 | 95.2 | 93.1 | 95.6 | 91.7 | 103
15 | O=C(Nc1ccccc1-c1cn2c(CN3CCNCC3)csc2n1)c1cnc2ccccc2n1 | 91.8 | 83 | 71.9 | 77.7 | 82.6 | 92 | 81.9 | 66.6 | 79.3 | 74.2 | 76.3 | 76.6 | 80.6 | 82.9 | 85.1 | 79.7 | 85.3 | 70.3 | 68.1 | 77.1 | 65.6 | 0.639 | 86.3 | 84.6 | 96 | 90.5 | 80 | 80.2 | 74.2 | 86.8 | 79.4 | 69 | 75.1
